# Assay results published in patent US20260215430A1, “HERBICIDAL COMPOSITIONS” (SYNGENTA CROP PROTECTION AG, priority 2022, published 2026).
# Columns and labels:
# CHEAL [1] = test: Post-emergence study L-GLU+BIR, CHEAL control; format: in vivo, Chenopodium Album L.; conditions: 9 days after treatment
# From the text: (§1) In a post-emergence study of AMPA, CHEAL, and Setaria faberi (SETFA) applications were done to 2 to 4-inch weeds with a spray volume of 15 gallons/acre. Treatments applied are described below, and further included an adjuvant.
# The results of CHEAL control with L-GLU+BIR (bicyclopyrone) mixtures at 9 days after treatment are summarized in the below matrix, where bolded values represent synergy as calculated by Colby.
# ABUTH = test: Post-emergence study L-GLU+MST, ABUTH control; format: in vivo, Velvet Leaf (Abutilon theophrast); conditions: 7 days after treatment
# From the text: (§2) In a post-emergence study of AMPA, CHEAL, and ABUTH (Velvet Leaf (Abutilon theophrast)) applications were done to 2 to 4-inch weeds with a spray volume of 15 gallons/acre. Treatments applied are described below, and further included an adjuvant.
# The results of ABUTH control with L-GLU+MST mixtures at 7 days after treatment are summarized in the below matrix, where bolded values represent synergy as calculated by Colby.
# Grasses = test: Postemergence field study on natural weed populations, grasses; format: in vivo; conditions: 28-31 DAA
# AMAPA [2] = test: Post-emergence study L-GLU+MST, AMAPA control; format: in vivo, Amaranthus palmeri; conditions: 7 days after treatment
# From the text: as §2
# The results of AMAPA control with L-GLU+MST mixtures at 7 days after treatment are summarized in the below matrix, where bolded values represent synergy as calculated by Colby.
# AMAPA [3] = test: Post-emergence study L-GLU+BIR, AMAPA control; format: in vivo, Amaranthus palmeri; conditions: 9 days after treatment
# From the text: as §1
# The results of AMAPA control with L-GLU+BIR (bicyclopyrone) mixtures at 9 days after treatment are summarized in the below matrix, where bolded values represent synergy as calculated by Colby.
# CHEAL [4] = test: Post-emergence study L-GLU+MST, CHEAL control; format: in vivo, Chenopodium Album L.; conditions: 7 days after treatment
# From the text: as §2
# The results of CHEAL control with L-GLU+MST mixtures at 7 days after treatment are summarized in the below matrix, where bolded values represent synergy as calculated by Colby.
# [5] = test system: SSBL (AMAPA, CHEAL, AMBEL); test: Postemergence field study on natural weed populations, small seeded broadleaf; format: in vivo; conditions: 28-31 DAA
# Description: In a postemergence field study on a natural weed populations. Herbicides were applied to 4-5″ weeds and efficacy was evaluated at 14 and 28-35 days after application. Rates were in g ai/ha. Data shown was small seeded broadleaf (SSBL; AMPA=Amaranthus palmeri; CHEAL=Chenopodium Album L.; AMBEL=Ambrosia Artemisiifolia L.) control 28-31 DAA. 100% was completely dead and 0% was no plant response.
# All weeds = test: Postemergence field study on natural weed populations, all weeds; format: in vivo; conditions: 28-31 DAA
# SETFA = test: Post-emergence study L-GLU+BIR, SETFA control; format: in vivo, Setaria faberi
# From the text: as §1
# The results of SETFA control with L-GLU+BIR (bicyclopyrone) mixtures at 7 and 14 days after treatment, respectively, are summarized in the below matrix, where bolded values represent synergy as calculated by Colby.
compound,measurement,setting,value
CP(=O)(O)CC[C@H](N)C(=O)O [L-glufosinate],% Control CHEAL,CHEAL [1]; L-GLU 5 g ai/ha alone,0%
same,% Control CHEAL,CHEAL [1]; L-GLU 10 g ai/ha alone,13%
same,% Control CHEAL,CHEAL [1]; L-GLU 30 g ai/ha alone,38%
same,% Control CHEAL,CHEAL [1]; L-GLU 60 g ai/ha alone,88%
same,% Control CHEAL,CHEAL [1]; L-GLU 120 g ai/ha alone,100%
same,% Control ABUTH,ABUTH; L-GLU 5 g ai/ha alone,2%
same,% Control ABUTH,ABUTH; L-GLU 10 g ai/ha alone,8%
same,% Control ABUTH,ABUTH; L-GLU 30 g ai/ha alone,38%
same,% Control ABUTH,ABUTH; L-GLU 60 g ai/ha alone,67%
same,% Control ABUTH,ABUTH; L-GLU 120 g ai/ha alone,87%
same,"control, Grasses",Grasses; L-glufosinate 328 g/ha,83%
same,% Control AMAPA,AMAPA [2]; L-GLU 5 g ai/ha alone,27%
same,% Control AMAPA,AMAPA [2]; L-GLU 10 g ai/ha alone,33%
same,% Control AMAPA,AMAPA [2]; L-GLU 30 g ai/ha alone,83%
same,% Control AMAPA,AMAPA [2]; L-GLU 60 g ai/ha alone,97%
same,% Control AMAPA,AMAPA [2]; L-GLU 120 g ai/ha alone,100%
same,% Control AMAPA,AMAPA [3]; L-GLU 5 g ai/ha alone,17%
same,% Control AMAPA,AMAPA [3]; L-GLU 10 g ai/ha alone,23%
same,% Control AMAPA,AMAPA [3]; L-GLU 30 g ai/ha alone,57%
same,% Control AMAPA,AMAPA [3]; L-GLU 60 g ai/ha alone,87%
same,% Control AMAPA,AMAPA [3]; L-GLU 120 g ai/ha alone,93%
same,% Control CHEAL,CHEAL [4]; L-GLU 5 g ai/ha alone,3%
same,% Control CHEAL,CHEAL [4]; L-GLU 10 g ai/ha alone,8%
same,% Control CHEAL,CHEAL [4]; L-GLU 30 g ai/ha alone,72%
same,% Control CHEAL,CHEAL [4]; L-GLU 60 g ai/ha alone,90%
same,% Control CHEAL,CHEAL [4]; L-GLU 120 g ai/ha alone,90%
same,"control, SSBL (AMAPA, CHEAL, AMBEL)",[5]; L-glufosinate 328 g/ha,55%
same,"control, All weeds",All weeds; L-glufosinate 328 g/ha,70%
same,% Control SETFA,"SETFA; L-GLU 5 g ai/ha alone, 14 Days after Treatment",10%
same,% Control SETFA,"SETFA; L-GLU 5 g ai/ha alone, 7 days after treatment",13%
same,% Control SETFA,"SETFA; L-GLU 10 g ai/ha alone, 14 Days after Treatment",35%
same,% Control SETFA,"SETFA; L-GLU 10 g ai/ha alone, 7 days after treatment",48%
same,% Control SETFA,"SETFA; L-GLU 30 g ai/ha alone, 14 Days after Treatment",65%
same,% Control SETFA,"SETFA; L-GLU 30 g ai/ha alone, 7 days after treatment",85%
same,% Control SETFA,"SETFA; L-GLU 60 g ai/ha alone, 14 Days after Treatment",89%
same,% Control SETFA,"SETFA; L-GLU 60 g ai/ha alone, 7 days after treatment",95%
same,% Control SETFA,"SETFA; L-GLU 120 g ai/ha alone, 14 Days after Treatment",100%
same,% Control SETFA,"SETFA; L-GLU 120 g ai/ha alone, 7 days after treatment",100%
bicyclopyrone,% Control CHEAL,CHEAL [1]; BIR 1.56 g ai/ha alone,58%
same,% Control CHEAL,CHEAL [1]; BIR 3.13 g ai/ha alone,75%
same,% Control CHEAL,CHEAL [1]; BIR 6.25 g ai/ha alone,88%
same,% Control CHEAL,CHEAL [1]; BIR 12.5 g ai/ha alone,92%
same,% Control CHEAL,CHEAL [1]; BIR 25 g ai/ha alone,96%
same,% Control CHEAL,CHEAL [1]; BIR 50 g ai/ha alone,97%
same,% Control AMAPA,AMAPA [3]; BIR 1.56 g ai/ha alone,27%
same,% Control AMAPA,AMAPA [3]; BIR 3.13 g ai/ha alone,37%
same,% Control AMAPA,AMAPA [3]; BIR 6.25 g ai/ha alone,48%
same,% Control AMAPA,AMAPA [3]; BIR 12.5 g ai/ha alone,53%
same,% Control AMAPA,AMAPA [3]; BIR 25 g ai/ha alone,80%
same,% Control AMAPA,AMAPA [3]; BIR 50 g ai/ha alone,90%
same,% Control SETFA,"SETFA; BIR 3.13 g ai/ha alone, 7 Days after Treatment",28%
same,% Control SETFA,"SETFA; BIR 3.13 g ai/ha alone, 14 Days after Treatment",23%
same,% Control SETFA,"SETFA; BIR 6.25 g ai/ha alone, 7 Days after Treatment",35%
same,% Control SETFA,"SETFA; BIR 6.25 g ai/ha alone, 14 Days after Treatment",32%
same,% Control SETFA,"SETFA; BIR 12.5 g ai/ha alone, 7 Days after Treatment",62%
same,% Control SETFA,"SETFA; BIR 12.5 g ai/ha alone, 14 Days after Treatment",45%
same,% Control SETFA,"SETFA; BIR 25 g ai/ha alone, 7 Days after Treatment",73%
same,% Control SETFA,"SETFA; BIR 25 g ai/ha alone, 14 Days after Treatment",58%
same,% Control SETFA,"SETFA; BIR 50 g ai/ha alone, 7 Days after Treatment",78%
same,% Control SETFA,"SETFA; BIR 50 g ai/ha alone, 14 Days after Treatment",75%
same,% Control SETFA,"SETFA; BIR 100 g ai/ha alone, 7 Days after Treatment",77%
same,% Control SETFA,"SETFA; BIR 100 g ai/ha alone, 14 Days after Treatment",90%
CS(=O)(=O)c1ccc(C(=O)C2C(=O)CCCC2=O)c([N+](=O)[O-])c1 [Mesotrione],% Control ABUTH,ABUTH; MST 1.5 g ai/ha alone,85%
same,% Control ABUTH,ABUTH; MST 3 g ai/ha alone,83%
same,% Control ABUTH,ABUTH; MST 6 g ai/ha alone,95%
same,% Control ABUTH,ABUTH; MST 12 g ai/ha alone,92%
same,% Control ABUTH,ABUTH; MST 24 g ai/ha alone,96%
same,% Control ABUTH,ABUTH; MST 60 g ai/ha alone,92%
same,"control, Grasses",Grasses; Mesotrione 105 g/ha,35%
same,% Control AMAPA,AMAPA [2]; MST 1.5 g ai/ha alone,20%
same,% Control AMAPA,AMAPA [2]; MST 3 g ai/ha alone,30%
same,% Control AMAPA,AMAPA [2]; MST 6 g ai/ha alone,37%
same,% Control AMAPA,AMAPA [2]; MST 12 g ai/ha alone,72%
same,% Control AMAPA,AMAPA [2]; MST 24 g ai/ha alone,85%
same,% Control AMAPA,AMAPA [2]; MST 60 g ai/ha alone,85%
same,% Control CHEAL,CHEAL [4]; MST 1.5 g ai/ha alone,78%
same,% Control CHEAL,CHEAL [4]; MST 3 g ai/ha alone,85%
same,% Control CHEAL,CHEAL [4]; MST 6 g ai/ha alone,92%
same,% Control CHEAL,CHEAL [4]; MST 12 g ai/ha alone,93%
same,% Control CHEAL,CHEAL [4]; MST 24 g ai/ha alone,93%
same,% Control CHEAL,CHEAL [4]; MST 60 g ai/ha alone,90%
same,"control, SSBL (AMAPA, CHEAL, AMBEL)",[5]; Mesotrione 105 g/ha,26%
same,"control, All weeds",All weeds; Mesotrione 105 g/ha,44%
